Reference: patent publication US11427553B2, “Dihydrooxadiazinones” (Bayer Aktiengesellschaft, priority 2017, dated 2022)

Assays:
IGR-1 cells = assay: Assay 1 cell proliferation measurement, IGR-1; type: cell-based; details: Homo sapiens, Melanoma, read-out: Anti-proliferation IC50 [nM] IGR-1
COLO741 cells = assay: Assay 1 cell proliferation measurement, COLO741; type: cell-based; details: Homo sapiens, COLO-741; Melanoma; read-out: Anti-proliferation IC50 [nM] COLO741
C32 cells = assay: Assay 1 cell proliferation measurement, C32; type: cell-based; details: Homo sapiens, Melanoma, read-out: Anti-proliferation IC50 [nM] C32
NCIH1563 cells = assay: Assay 2 cell proliferation measurement, NCIH1563; type: cell-based; details: Homo sapiens, NCI-H1563, Lung adenocarcinoma, read-out: Anti-proliferation IC50 [nM] NCIH1563
Description: (§1) Cell Proliferation Measurement
(§2) The antiproliferative activity of the compounds of the general formula (I) was examined in vitro in human cancer cells. For this purpose, 500 cells, including HeLa cells, A2058 cells, DU145 cells, HMCB cells, IGR37 cells, NCIH1734 cells, OSRC2 cells, or 750 cells, including CAL51 cells, COL0741 cells, DBTRG05MG cells, DKMG cells, G292CLONEA141B1 cells, GB1 cells, HEL cells, HEL9217 cells, JHUEM1 cells, L3.3 cells, LI7 cells, TE4 cells, or 1000 cells, including 8505C cells, HUT78 cells, NCIH1563 cells, NCIH2122 cells, NCIH2172 cells, RVH421 cells, SKMEL3 cells, or 1500 cells, including C32 cells, HS578T cells, JHOM1 cells, NCIH196 cells, OVKATE cells, were plated in 384-well plates with appropriate growth medium and incubated at 37° C. overnight. […] After 72 h, the cells were treated with 20 μl/well of 50% CTG solution in PBS (Promega Cell Titer Glo (catalogue #G755B and G756B)) and incubated at room temperature for 10 min, and luminescence was measured by means of a VICTOR V (Perkin Elmer), in order to determine cell viability at the end of treatment. The percentage effect on cell growth and the IC50 derived therefrom were determined for each test substance using the values from untreated wells (=percent viability). The IC50 values were calculated using a 4-parameter fit.

TE4 cells = assay: Assay 2 cell proliferation measurement, TE4; type: cell-based; details: Homo sapiens, Oesophagus squamous cell carcinoma, read-out: Anti-proliferation IC50 [nM] TE4
Description: as §1, §2

[1] = tested on: xenograft models of human tumors; assay: Assay 3 in vivo xenotransplantation models of human cancer (overall statement); details: monotherapy treatment, p.o., mice
From the text: (§3) In Vivo Xenotransplantation Models
(§4) The anti-tumor activities of Compounds of examples 135 and 146 were examined in murine xenotransplantation models of human cancer. For this purpose, mice were implanted subcutaneously with tumor cells. At a mean tumor size of 20-40 mm^2 animals were randomized into treatment and control groups (at least n=10 animals/group) and treatment started with vehicle only or respective Compound (formulation: 90% PEG400/10% Ethanol; application route: per os (“p.o.”), orally). The oral application volume was 10 ml/kg. In the case of twice daily treatments, the time interval between two applications per day was 6-7 h. The tumor size and the body weight were determined at least weekly. The tumor area was detected by means of an electronic caliper [length (mm)×width (mm)]. The experiment was ended when the study reached the pre-determined ethical endpoint based on German and European animal welfare regulations. In vivo anti-tumor efficacy is presented as T/C ratio at study end (Treatment/Control; mean tumor weight of treatment group/mean tumor weight of control group) in Table 8. A compound having a T/C below 0.5 is defined as active (i.e., effective). Statistical analysis was assessed using SigmaStat software. A one-way analysis of variance was performed and differences to the control were compared by a pair-wise comparison procedure (Dunn's method).

DBTRG-05-MG cells = assay: Assay 1 cell proliferation measurement, DBTRG-05-MG; type: cell-based; details: Homo sapiens, Glioblastoma, read-out: Anti-proliferation IC50 [nM] DBTRG-05-MG
CAL51 cells = assay: Assay 2 cell proliferation measurement, CAL51; type: cell-based; details: Homo sapiens, CAL-51, Breast NS, read-out: Anti-proliferation IC50 [nM] CAL51
Description: as §1, §2

NCIH2122 cells = assay: Assay 2 cell proliferation measurement, NCIH2122; type: cell-based; details: Homo sapiens, NCI-H2122, Lung adenocarcinoma, read-out: Anti-proliferation IC50 [nM] NCIH2122
Description: as §1, §2

JHOM1 cells = assay: Assay 2 cell proliferation measurement, JHOM1; type: cell-based; details: Homo sapiens, Ovary adenocarcinoma, read-out: Anti-proliferation IC50 [nM] JHOM1
Description: as §1, §2

DU145 cells = assay: Assay 2 cell proliferation measurement, DU145; type: cell-based; details: Homo sapiens, DU-145, Prostate NS, read-out: Anti-proliferation IC50 [nM] DU145
Description: as §1, §2

[2] = tested on: HEL92.1.7 xenograft (AML); assay: Assay 3 in vivo xenotransplantation model, HEL92.1.7; details: HEL92.1.7 AML xenograft, mice, 40 mg/kg 2QD p.o.; * P < 0.05 vs control
From the text: as §3, §4

[3] = tested on: HeLa xenograft (Cervical cancer); assay: Assay 3 in vivo xenotransplantation model, HeLa; details: mice, 5 mg/kg 2QD p.o., * P < 0.05 vs control
From the text: as §3, §4

[4] = tested on: A2058 xenograft (Melanoma); assay: Assay 3 in vivo xenotransplantation model, A2058; details: mice, 10 mg/kg 2QD p.o., * P < 0.05 vs control
From the text: as §3, §4

H4 cells = assay: Assay 1 cell proliferation measurement, H4; type: cell-based; details: Homo sapiens; Astrocytoma; read-out: Anti-proliferation IC50 [nM] H4
NCI-H1734 cells = assay: Assay 1 cell proliferation measurement, NCI-H1734; type: cell-based; details: Homo sapiens, Lung, read-out: Anti-proliferation IC50 [nM] NCI-H1734

Q: `C[C@@H]1OC(=O)NN=C1c1ccc(-c2ccc(F)cc2)c(C(F)(F)F)c1` [Example 135, (6S)-5-[4′-Fluoro-2-(trifluoromethyl)biphenyl-4-yl]-6-methyl-3,6-dihydro-2H-1,3,4-oxadiazin-2-one] was tested. Which IC50 (IGR-1 cells) did it give?
A: Its IC50 is greater than 100 nM.

Q: What about the IC50 (COLO741 cells) of the same molecule?
A: The IC50 was 1 nM.

Q: And the IC50 (C32 cells)?
A: The IC50 was 15 nM.

Q: What about the IC50 (NCIH1563 cells) of the same molecule?
A: Its IC50 is 18 nM.

Q: And the IC50 (TE4 cells)?
A: The IC50 was 15 nM.

Q: And the “anti-tumor efficacy in xenograft models of human tumors” value [1]?
A: The value was “potent anti-tumor efficacy”.

Q: Which IC50 (DBTRG-05-MG cells) does the source give for `O=C1NN=C(c2ccc(-c3ccc(Cl)cc3)c(C(F)(F)F)c2)CO1` [Example 31, 5-[4′-Chloro-2-(trifluoromethyl)biphenyl-4-yl]-3,6-dihydro-2H-1,3,4-oxadiazin-2-one] here?
A: Its IC50 is 56 nM.

Q: With `C[C@@H]1OC(=O)NN=C1c1ccc(-n2ccc(C(F)(F)F)n2)c(C(F)(F)F)c1` [Example 265, (6S)-6-Methyl-5-{3-(trifluoromethyl)-4-[3-(trifluoromethyl)-1H-pyrazol-1-yl]phenyl}-3,6-dihydro-2H-1,3,4-oxadiazin-2-one] as the molecule, how does the IC50 (NCIH1563 cells) read?
A: The IC50 was 46 nM.

Q: And the IC50 (TE4 cells)?
A: The IC50 was 41 nM.

Q: Which results are given for `O=C1NN=C(c2ccc(-c3cnn(C(F)F)c3)c(C(F)(F)F)c2)CO1` [Example 146, 5-{4-[1-(Difluoromethyl)-1H-pyrazol-4-yl]-3-(trifluoromethyl)phenyl}-3,6-dihydro-2H-1,3,4-oxadiazin-2-one]?
A: IC50 (DBTRG-05-MG cells): 14 nM; IC50 (CAL51 cells): 37 nM; IC50 (NCIH2122 cells): 3 nM; IC50 (JHOM1 cells): 8 nM; IC50 (DU145 cells): 14 nM; T/C (mean final tumor weight treatment / control) [2]: 0.08*; T/C (mean final tumor weight treatment / control) [3]: 0.08*; T/C (mean final tumor weight treatment / control) [4]: 0.23*; anti-tumor efficacy in xenograft models of human tumors [1]: potent anti-tumor efficacy

Q: With `O=C1NN=C(c2ccc(-c3ccc(F)cc3)c(C(F)(F)F)c2)CO1` [Example 3, 5-[4′-Fluoro-2-(trifluoromethyl)biphenyl-4-yl]-3,6-dihydro-2H-1,3,4-oxadiazin-2-one] as the molecule, how does the IC50 (H4 cells) read?
A: The IC50 was 25 nM.

Q: What about the IC50 (NCI-H1734 cells) of the same molecule?
A: Its IC50 is 13 nM.

Q: And the IC50 (IGR-1 cells)?
A: The IC50 was 99 nM.
